Measured values published in patent US9161951B2, “Parenteral nutrition composition containing iron” (priority 2005, dated 2015).

Key:
[1] = patients receiving TPN, 87.5-175 mg/week iron i.v., 3 week period; cited from earlier work
[2] = in vivo; cited from earlier work
[3] = test system: iron deficiency anemia; settings: 15 mg in PN admixture i.v. over 6 hours every day, 3 months
Excerpt: A patient with a history of bowel resection, secondary to inflammatory bowel disease is currently receiving TPN therapy at home. The patient develops iron deficiency anemia, secondary to ongoing bloody diarrhea and malabsorption of iron. The patient is unable to take iron supplements by mouth due to bloating and diarrhea.

[4] = single parenteral nutrition component; cited from earlier work

iron dextran
effect on serum iron levels [1]: effectively raised serum iron levels

O=P([O-])([O-])OP(=O)([O-])[O-].[Sn+2].[Sn+2] [stannous pyrophosphate]
reported adverse effects [2]: cause hypocalcemia and immediate toxic effects

soluble ferric pyrophosphate [soluble FePPi]
correction of iron deficiency anemia [3]: effectively corrects iron deficiency anemia

O=C([O-])CC(O)(CC(=O)O)C(=O)[O-].[Fe+2] [ferrous citrate]
duration of compatibility with amino acid solution [4]: 1 days
